Here are results for one compound from paper PMC13081163, “Discovery of a novel Nrf2 activator that modulates mitochondrial function in neurons by regulating DHRS3-Nrf2 interaction after ischemic stroke” (Theranostics, 2026).

Series [1] is described as follows: Microsomal metabolic stability, rat. Type of series: in vitro ADME. The note with it: rat liver microsomes. As for the experimental part: (§1) The liver microsomal incubation system comprised human, dog, or rat liver microsomal protein (0.75 mg/mL), nicotinamide adenine dinucleotide phosphate (NADPH) generation system, potassium phosphate buffer (0.1 M, pH 7.4), substrate, and inhibitor. The assay was conducted by first preparing a potassium phosphate buffer. Compounds and liver microsomes were then diluted and pre-incubated at 37 °C before initiating the reaction with NADPH. Aliquots were quenched with acetonitrile containing internal standard at specified time points. After sample processing (shaking and centrifugation), the supernatants were analyzed by LC-MS/MS to determine metabolic stability.

In series [2] the target is T1, Keap1-Nrf2 (Homo sapiens, UniProt Q14145).
T1 construct: endogenous in cells; host or cells: SH-SY5Y
The experiment in a line: Co-IP of Keap1-Nrf2 binding in SH-SY5Y cells. Type of series: cell-based. The note with it: 100 nM, physiological and OGD/R conditions. As for the experimental part: Co-IP experiments were performed as described. After SH-SY5Y cells were treated, lysates were collected and incubated with antibodies with rotation for 12 h at 4 °C. Then, they were incubated with protein A/G magnetic beads (88804, Thermo Scientific, USA) as specification. Subsequently, the beads were collected and immune complexes were isolated. Finally, protein complexes were incubated for 5 min at 95 °C after dissolving in the electrophoresis sample buffer, and subjected to western blotting.

Series [3] concerns SH-SY5Y cells and primary cortical neuron cells. The experiment in a line: Mitochondrial function in the OGD/R model (JC-1, Calcein-AM, DCFH-DA, ATP). Type of series: cell-based. As for the experimental part:
Experiment two: mitochondrial ATP levels were assayed using ATP assay kit (S0027, Beyotime, China) according to the manufacturer's protocols. The cells were cultured by placing them in six-well plates as described in the "Cell culture and drug administration in vitro" method. Subsequently, 200 uL of lysate was added into the hole and supernatants were collected (4 °C, 12000 g, 5 min). 100 uL supernatants cultured with 100 µL probe of ATP, and the RLU was measured by a luminometer.
Assay of ROS generation production: cellular ROS were examined using an ROS Assay Kit (S0033S, Beyotime, China). Cells were incubated with DCFH-DA for 20 min at 37 °C in the dark, and then washed three times with PBS. The fluorescence intensity was measured by Laser Scanning Confocal Microscope (CLSM; ZEISS LSM 800, Germany).
Mitochondrial membrane potential (MMP) and MPTP assessment: MMP changes were measured by a mitochondrial membrane potential assay kit with JC-1 (C2003S, Beyotime, China) according to the manufacturer's instructions. Higher ratios of red to green fluorescence were correlated with higher mitochondrial membrane polarization. In addition, MPTP opening was assessed by Calcein-AM assays (Y237214-1mg, Beyotime, China). […] For detailed instructions, please refer to the manual.

A short description of series [4]: Microsomal metabolic stability, human. Type of series: in vitro ADME. As to conditions: human liver microsomes. As for the experimental part: as §1
A short description of series [5]: Microsomal metabolic stability, dog. Type of series: in vitro ADME. As to conditions: dog liver microsomes. On the procedure: as §1
The subject of series [6] is tMCAO rats. The experiment in a line: Long-term recovery after tMCAO (survival, body weight, behaviour). Type of series: in vivo, rat. The note with it: 5 mg/kg tail vein injection for 7 d. As for the experimental part:
To assess the degree of neurological impairment, we conducted modified Neurological Severity Score (mNSS) according to previous experience. The investigator was blinded to the grouping situation during the whole experiment.
On postoperative day 3 two wooden boards of identical size were joined at a 30° angle, with a narrow gap retained at the junction. The rat was positioned facing the apex of the angle. When it advanced into the deeper part of the angle, bilateral whisker contact with the boards triggered a characteristic rearing response, followed by a turn to face the opposite direction. Each rat underwent 15 trials, and the number of right turns was recorded. The higher the right-turn ratio, the more severe the injury.
Rats were placed on a horizontal, stainless steel wire grid. The grid was then smoothly rotated 180 degrees to an inverted position and held stationary at a height of 0.8 m. A stopwatch was started immediately upon inversion to measure the latency to fall. The test was terminated if the animal remained on the grid for 60 s, at which point it was gently returned to its home cage, and a score of 60 s was recorded.
The Y-maze apparatus consisted of three symmetrically arranged enclosed arms (typically labeled Arms A, B, and C), each positioned 120° apart. At the start of each trial, the subject was placed in Arm A and allowed to move freely through the maze for 8 min. Spatial working memory was evaluated by calculating the spontaneous alternation rate, using the following formula:
Following a 2 h acclimation period, the rats were within an open field cubic box (100 × 100 × 40 cm^3) and allowed 5 min of unrestricted movement. The travel distance and the time spent in the central area were recorded.
The spatial learning and memory of rats were assessed using the Morris water maze (MWM) from post-operative days 23 to 26. Over four consecutive days, animals underwent training trials in which they were required to locate a submerged escape platform within 60 s. Each rat was gently placed into the water facing the pool wall. If the rat found the platform and remained on it for 10 s, the escape latency was recorded. If the platform was not found within 60 s, the rat was guided onto it and allowed to stay for 10 s, and the latency was recorded as 60 s. Following the training phase, the platform was removed, and a visual spatial memory test lasting for 60 s was conducted to assess the retention of memory. The number of platform-location crossings and the time spent in the target quadrant were recorded and analyzed.

Series [7] is described as follows: Pharmacokinetics in male rats (LC-MS/MS). As to conditions: SD, rat, plasma, iv, 5 mg/kg. Type of series: in vivo. On the procedure:
Male SD rats were intravenous injection with Cpd.51, blood and brain tissues were collected 15 min, 1 h, 4 h, 6 h, 8 h and 24 h after drug administration. Samples were measured by a Shimadzu chromatography system (Shimadzu, Kyoto, Japan) coupled with an AB Sciex triple quadrupole 4500 mass spectrometer (SCIEX Triple Quad™ 4500 LC-MS/MS, Applied Biosystems Sciex, Ontario, Canada) using Analyst 1.4.2 software. A HPLC column (ACQUITY UPLC BEH C18, 2.1 × 50 mm, 1.7 μm) were used. Protein precipitation method was used for detection: 50 μL plasma sample or brain homogenate sample were added with 200 μL acetonitrile containing internal standard for precipitation, then vortexed for 3 min. The supernatant was injected into system for analysis after centrifugation.

T1 sequence (Q14145 whole entry): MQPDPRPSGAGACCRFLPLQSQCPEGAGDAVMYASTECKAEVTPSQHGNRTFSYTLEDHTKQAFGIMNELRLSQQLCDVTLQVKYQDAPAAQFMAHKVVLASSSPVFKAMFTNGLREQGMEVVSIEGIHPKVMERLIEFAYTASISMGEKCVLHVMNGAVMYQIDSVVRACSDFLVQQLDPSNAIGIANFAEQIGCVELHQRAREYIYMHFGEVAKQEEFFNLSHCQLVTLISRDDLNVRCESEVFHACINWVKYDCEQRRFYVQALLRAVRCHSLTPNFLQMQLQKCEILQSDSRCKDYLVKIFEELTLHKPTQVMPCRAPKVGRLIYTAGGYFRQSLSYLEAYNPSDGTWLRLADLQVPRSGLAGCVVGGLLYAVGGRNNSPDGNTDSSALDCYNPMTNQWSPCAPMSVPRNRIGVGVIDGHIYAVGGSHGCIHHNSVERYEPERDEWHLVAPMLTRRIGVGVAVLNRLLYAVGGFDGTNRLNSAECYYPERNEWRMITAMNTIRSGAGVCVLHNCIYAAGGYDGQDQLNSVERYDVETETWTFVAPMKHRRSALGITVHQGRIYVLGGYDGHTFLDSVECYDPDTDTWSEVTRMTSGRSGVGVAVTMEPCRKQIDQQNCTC

On to `CC1(C)CCC2(C(=O)NO)CCC3(C)C(C(=O)C=C4C5(C)C=C(C#N)C(=O)C(C)(C)C5CCC43C)C2C1` (centres unmarked) [Cpd.51], for which the “Remainig (%, t = 60 min)” value in series [1] was found to be 51.1%. In series [1] (rat, pH 7.4), this compound registered a CLint scaled of 41 mL/min/kg and a half-life of 60.8 min. The “amount of Nrf2 bound to Keap1 (Co-IP)” value in series [2] was “reduced the amount of Nrf2 bound to Keap1”. In addition, in series [3], the “mitochondrial membrane potential (JC-1)” value is recorded as “enhanced mitochondrial membrane potential” and the “mitochondrial permeability (MPTP, Calcein AM)” value is reported as “reduced mitochondrial permeability”. In series [3] (SH-SY5Y cells), the ATP production entry was “increased ATP production” and the “reactive oxygen species production (DCFH-DA)” value is “decreased reactive oxygen species production”. Also, the “Remainig (%, t = 60 min)” value in series [4] came out at 28.9%. In addition, in series [4] (human, pH 7.4), the CLint scaled came out at 34 mL/min/kg and the half-life amounted to 36.7 min. For the same compound, the “Remainig (%, t = 60 min)” value in series [5] was determined as 32.9%. In series [5] (dog, pH 7.4), this compound had a CLint scaled of 51 mL/min/kg and a half-life of 39.2 min. For the same compound, in series [6], the “Morris water maze, spatial learning and memory” value is reported as “only a modest capacity to improve these cognitive functions”; the “body weight and mNSS scores, long-term” value is “significantly improved body weight and mNSS scores”; the “mortality after tMCAO” value was “reduced mortality”. Moreover, in series [6] (vs model group), the “corner, inverted screen, Y maze and open field tests” value is “exhibited improvements in neurological deficits, motor abilities, and spatial working and reference memory”. In series [7], this compound gave an area under the curve AUC(0-t) of 991 ± 70 ng·h/mL, a C0 of 3410 ± 45 ng/mL, a Cmax of 2120 ± 75 ng/mL and an MRT last of 50.6 ± 3.24 min. For the same compound, the clearance in series [7] (i.v., read-out: CL_obs (converted)) was 83.5 mL/min/kg.
